Laboratory results: paper PMC7692923, “Co-Ingestion of Black Carrot and Strawberry. Effects on Anthocyanin Stability, Bioaccessibility and Uptake” (Foods, 2020)

Experiments:
Assay type in all cases: in vitro ADME
[1] = Gastric stability of anthocyanins in extracts, standardized in vitro digestion (simulated gastric fluid, pepsin, pH 3.0); details: for Gastric stability: % of undigested
Description: (§1) A standardized in vitro digestion procedure was applied to each sample [20]. For the gastric phase, 7.5 mL of a simulated gastric fluid (in mM: KCl 6.9, KH2PO4 0.9, NaHCO3 25, NaCl 47.2, MgCl2(H2O) 0.1, (NH4)2CO3 0.5, pH 3.0), 5 µL of CaCl2 (0.3 M) and 1.6 mL of porcine pepsin solution (25,000 U/mL) were added and the pH of was adjusted to 3.0 using HCl (1 M). Demineralized water was added to the gastric chyme to complete a volume of 20 mL. Nitrogen was flushed into the headspace of the tubes before incubation at 37 °C during 2 h in the dark, while end-over-end rotation (40 rpm). For the intestinal phase simulation, the gastric chyme was mixed with 11 mL of simulated intestinal fluid (in mM: KCl 6.8, KH2PO4 0.8, NaHCO3 85, NaCl 38.4, MgCl2(H2O) 0.33, pH 7.0), 40 µL of CaCl2, 5 mL of pancreatin solution (800 U/mL based on trypsin activity) and 2.5 mL of bile solution (160 mM). NaOH (1 M) was used to adjust the pH to 7 and water to complete the volume until 40 mL. Prior to incubation in the dark, at 37 °C, 2 h, end-over-end rotation, the headspace of the tubes was flushed with nitrogen.
(§2) Aliquots from gastric and intestinal digests were sampled along black carrot and strawberry extracts digestion, stabilized by acidification with formic acid and stored at −20 °C until further analysis. Stability (%) was calculated as indicated by Equations (1) and (2). (1) Gastric stability (%)=(anthocyanin (mg·100 mL^−1) after gastric digestion)/(anthocyanin (mg·100 mL^−1) before digestion)×100 (2) Intestinal stability (%)=(anthocyanin (mg·100 mL^−1) after intestinal digestion)/(anthocyanin (mg·100 mL^−1) before digestion)×100

[2] = Intestinal stability of anthocyanins in extracts, standardized in vitro digestion (simulated intestinal fluid, pancreatin, bile, pH 7); details: for Intestinal stability: % of undigested; for Post-Intestinal concentration: mean ± SD n = 3
Description: as §1, §2

[3] = In vitro bioaccessibility after digestion of matrix-containing powder; details: for Post-digestion concentration (bioaccessible fraction): mean ± SD n = 3
Description: as §1
After digestion of the powdered samples, an ultracentrifugation (Beckman L7 ultracentrifuge, Palo, Alto, CA, USA) at 165,000× g, 4 °C, 65 min, was performed to separate soluble and non-soluble fractions. The supernatant, containing the bioaccessible anthocyanins, was isolated. For the determination of anthocyanins, the digest was acidified with formic acid (1%) to stabilize the compounds, prior to the quantification by high performance liquid chromatography (HPLC). Results are shown as the ratio of the bioaccessible compound concentration to the initial compound concentration in the sample, as indicated in Equation (3). (3) Bioaccessibility (%)=(anthocyanin (mg.100 g^−1) after digestion)/(anthocyanin (mg.100 g^−1) before digestion)×100

[4] = co-digestion of black carrot and strawberry extracts
[5] = co-digestion of black carrot and strawberry extracts, mean ± SD n = 3
[6] = single digestion, liquid extract, 2 h 37 °C pH 3.0, mean ± SD n = 3
[7] = single digestion, liquid extract
[8] = single digestion, liquid extract, pH 7, 2 h 37 °C
[9] = co-digestion of black carrot and strawberry powder
[10] = single digestion, matrix-containing powder

| Gastric stability [1, 4] | Post-Gastric concentration [1, 5] | Post-Gastric concentration [1, 6] | Gastric stability [1, 7] | Intestinal stability [2, 4] | Post-Intestinal concentration [2, 4] | Intestinal stability [2, 7] | Post-Intestinal concentration [2, 8] | Bioaccessibility [3, 9] | Bioaccessibility [3, 10] | Structure (SMILES) | Post-digestion concentration (bioaccessible fraction) [3, 9] | Post-digestion concentration (bioaccessible fraction) [3, 10] |
| --- | --- | --- | --- | --- | --- | --- | --- | --- | --- | --- | --- | --- |
| 66% | 1.16 ± 0.02 mg/100 mL of extract | 1.14 ± 0.01 mg/100 mL of extract | 65% | 42% | 0.75 ± 0.04 mg/100 mL of extract | 48% | 0.85 ± 0.07 mg/100 mL of extract | 52% | 28% | O=C(/C=C/c1ccc(O)cc1)OC[C@H]1O[C@@H](OC[C@H]2O[C@@H](Oc3cc4c(O)cc(O)cc4[o+]c3-c3ccc(O)c(O)c3)[C@H](O[C@@H]3OC[C@@H](O)[C@H](O)[C@H]3O)[C@@H](O)[C@H]2O)[C@H](O)[C@@H](O)[C@@H]1O [Cyanidin-3-xylosyl-coumaroyl-glucosyl-galactoside] | 105.2 ± 0.9 mg/100 g of sample (dry weight) | 55.8 ± 5.2 mg/100 g of sample (dry weight) |
| 86% | 8.28 ± 0.03 mg/100 mL of extract | 8.23 ± 0.04 mg/100 mL of extract | 86% | 60% | 5.81 ± 0.03 mg/100 mL of extract | 58% | 5.54 ± 0.05 mg/100 mL of extract | 48% | 34% | COc1cc(/C=C/C(=O)OC[C@H]2O[C@@H](OC[C@H]3O[C@@H](Oc4cc5c(O)cc(O)cc5[o+]c4-c4ccc(O)c(O)c4)[C@H](O[C@@H]4OC[C@@H](O)[C@H](O)[C@H]4O)[C@@H](O)[C@H]3O)[C@H](O)[C@@H](O)[C@@H]2O)ccc1O [Cyanidin-3-xylosyl-feruloyl-glucosyl-galactoside] | 528.3 ± 15.0 mg/100 g of sample (dry weight) | 378.4 ± 26.1 mg/100 g of sample (dry weight) |
| 83% | 0.98 ± 0.02 mg/100 mL of extract | 0.95 ± 0.00 mg/100 mL of extract | 81% | 92% | 1.09 ± 0.01 mg/100 mL of extract | 79% | 0.94 ± 0.01 mg/100 mL of extract | 84% | 33% | OC[C@H]1O[C@@H](Oc2cc3c(O)cc(O)cc3[o+]c2-c2ccc(O)c(O)c2)[C@H](O[C@@H]2OC[C@@H](O)[C@H](O)[C@H]2O)[C@@H](O)[C@H]1O [Cyanidin-3-xylosyl-galactoside] | 113.8 ± 0.2 mg/100 g of sample (dry weight) | 44.1 ± 4.4 mg/100 g of sample (dry weight) |
| 56% | 0.24 ± 0.02 mg/100 mL of extract | 0.25 ± 0.01 mg/100 mL of extract | 59% | 99% | 0.42 ± 0.00 mg/100 mL of extract | 86% | 0.36 ± 0.00 mg/100 mL of extract | 105% | 62% | OC[C@H]1O[C@@H](OC[C@H]2O[C@@H](Oc3cc4c(O)cc(O)cc4[o+]c3-c3ccc(O)c(O)c3)[C@H](O[C@@H]3OC[C@@H](O)[C@H](O)[C@H]3O)[C@@H](O)[C@H]2O)[C@H](O)[C@@H](O)[C@@H]1O [Cyanidin-3-xylosyl-glucosyl-galactoside] | 50.5 ± 9.2 mg/100 g of sample (dry weight) | 29.7 ± 3.7 mg/100 g of sample (dry weight) |
| 76% | 12.63 ± 0.46 mg/100 mL of extract | 11.13 ± 0.09 mg/100 mL of extract | 90% | 35% | 5.78 ± 0.13 mg/100 mL of extract | 49% | 6.01 ± 0.02 mg/100 mL of extract | 28% | 36% | OC[C@H]1O[C@@H](Oc2cc3c(O)cc(O)cc3[o+]c2-c2ccc(O)cc2)[C@H](O)[C@@H](O)[C@@H]1O [Pelargonidin-3-glucoside] | 272.5 ± 19.7 mg/100 g of sample (dry weight) | 256.6 ± 8.3 mg/100 g of sample (dry weight) |
| 92% | 3.57 ± 0.07 mg/100 mL of extract | 3.37 ± 0.01 mg/100 mL of extract | 87% | 49% | 1.91 ± 0.02 mg/100 mL of extract | 46% | 1.77 ± 0.01 mg/100 mL of extract | 36% | 34% | O=C(O)CC(=O)OC[C@H]1O[C@@H](Oc2cc3c(O)cc(O)cc3[o+]c2-c2ccc(O)cc2)[C@H](O)[C@@H](O)[C@@H]1O [Pelargonidin-3-malonyl-glucoside] | 81.3 ± 6.6 mg/100 g of sample (dry weight) | 76.2 ± 1.8 mg/100 g of sample (dry weight) |
